# Laboratory results as given in publication PMC10051969, “Exploring Probenecid Derived 1,3,4-Oxadiazole-Phthalimide Hybrid as α-Amylase Inhibitor: Synthesis, Structural Investigation, and Molecular Modeling” (Pharmaceuticals, 2023).
# Biological target: α-amylase
# Assay: DNS colorimetric α-amylase assay, starch substrate, absorbance at […] nm
# Format: biochemical
smiles,measurement,value
"CCCN(CCC)S(=O)(=O)c1ccc(-c2nnc(SCN3C(=O)c4ccccc4C3=O)o2)cc1 [PESMP, 4-(5-((1,3-Dioxoisoindolin-2-yl)methylthio)-1,3,4-oxadiazol-2-yl)-N,N-dipropylbenzene-sulfonamide]",IC50 Value,10.60 ± 0.16 µg/mL
